# Results as given in US11352606B2, “Low oxygen tension enhances endothelial fate of human pluripotent stem cells” (THE JOHNS HOPKINS UNIVERSITY, priority 2014, dated 2022).
# Tested on: VEcad and CD31 mRNA expression in EVCs
# Conditions: DPI days 3-6, 5% O2, after 12 days
# Experimental: Real-time quantitative RT-PCR. Two-step reverse transcription polymerase chain reaction (RT-PCR) was performed on differentiated and undifferentiated (day 0) hPSCs as previously described in accordance with Applied Biosystems manufacturer instructions (Kusuma et al., The FASEB Journal. 2012; 26:4925-4936). For each primer set (CD34, KDR, CD56, VEcad, CD31, ephrinB2, EphB4, Nrp1, Nrp2), the comparative […] method (Applied Biosystems, Foster City, Calif.) was used to calculate the amplification differences between different samples. The values for experiments were averaged and graphed with standard deviations.
# ROS detection and inhibition. Previously published protocols were followed to detect and inhibit ROS production (Abaci et al., American Journal of Physiology—Cell Physiology. 2011; 301:C431-C440). For ROS detection, the culture media was replaced with 10 μM 2′,7′-dichlorodihydrofluorescein diacetate (H2-DCFDA) (Invitrogen) in PBS and incubated for 30 min at 37° C. Samples were washed with PBS three times prior to imaging. For ROS inhibition, cells were treated with diphenyleneiodonium (DPI) (Sigma-Aldrich) at a concentration of 10 μM.
# DPI-treated cells were maintained in 5% O2 conditions for the second six days of differentiation but without DPI.
# [1] = RT-PCR normalized to control (atmospheric) EVCs
structure (smiles),measurement,setting,value
"c1ccc2c(c1)[I+]c1ccccc1-2 [DPI, diphenyleneiodonium]",CD31 expression compared to EVCs differentiated in 5% O2 without DPI,,significantly lower
same,VEcad expression compared to EVCs differentiated in 5% O2 without DPI,,significantly lower
same,expression of CD31 compared to control EVCs,[1],lower
same,expression of VEcad compared to control EVCs,[1],similar
